Reference: the supplement of paper PMC10307832

Key:
Assay in all cases: relative viability (nuclei count vs DMSO), 5 days (fraction); higher = more cells survive
DM3189 + Lapatinib = compound: C1CN(CCN1)C2=CC=C(C=C2)C3=CN4C(=C(C=N4)C5=CC=NC6=CC=CC=C56)N=C3 [DM3189] + CS(=O)(=O)CCNCc1ccc(-c2ccc3ncnc(Nc4ccc(OCc5cccc(F)c5)c(Cl)c4)c3c2)o1 [Lapatinib] (partner 2 µM)
Outline: (§1)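 After 5 days of treatment, lung cancer cells in 1536-well plates were fixed and stained in a single step (final 0.05% Triton X-100, 1% formaldehyde, 1 ug/ml Hoechst) and their nuclei counted on 4× images. Treatment had been applied by pin tool the day after seeding as one drug alone or as a fixed anchor-drug dose with five library-drug doses (not always all listed) in √10 steps. Relative viability is the nuclei count of treated wells divided by that of vehicle wells, and values are medians of duplicate plates.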

DM3189 + Bortezomib = compound: C1CN(CCN1)C2=CC=C(C=C2)C3=CN4C(=C(C=N4)C5=CC=NC6=CC=CC=C56)N=C3 [DM3189] + CC(C)C[C@H](NC(=O)[C@H](Cc1ccccc1)NC(=O)c1cnccn1)B(O)O [Bortezomib] (partner 0.002 µM)
Outline: as §1

DM3189 + Navitoclax = compound: C1CN(CCN1)C2=CC=C(C=C2)C3=CN4C(=C(C=N4)C5=CC=NC6=CC=CC=C56)N=C3 [DM3189] + CC1(C)CCC(c2ccc(Cl)cc2)=C(CN2CCN(c3ccc(C(=O)NS(=O)(=O)c4ccc(N[C@H](CCN5CCOCC5)CSc5ccccc5)c(S(=O)(=O)C(F)(F)F)c4)cc3)CC2)C1 [Navitoclax] (partner 0.5 µM)
Outline: as §1

DM3189 + Pictilisib = compound: C1CN(CCN1)C2=CC=C(C=C2)C3=CN4C(=C(C=N4)C5=CC=NC6=CC=CC=C56)N=C3 [DM3189] + CS(=O)(=O)N1CCN(Cc2cc3nc(-c4cccc5[nH]ncc45)nc(N4CCOCC4)c3s2)CC1 [Pictilisib] (partner 1 µM)
Outline: as §1

DM3189 + OSI-027 = compound: C1CN(CCN1)C2=CC=C(C=C2)C3=CN4C(=C(C=N4)C5=CC=NC6=CC=CC=C56)N=C3 [DM3189] + COc1cccc2cc(-c3nc([C@H]4CC[C@H](C(=O)O)CC4)n4ncnc(N)c34)[nH]c12 [OSI-027] (partner 0.5 µM)
Outline: as §1

| Cell Line | relative viability (DM3189 + Lapatinib; first compound 0.08 µM) | relative viability (DM3189 + Lapatinib; first compound 0.253 µM) | relative viability (DM3189 + Lapatinib; first compound 0.8 µM) | relative viability (DM3189 + Lapatinib; first compound 2.53 µM) | relative viability (DM3189 + Bortezomib; first compound 0.08 µM) | relative viability (DM3189 + Bortezomib; first compound 0.253 µM) | relative viability (DM3189 + Bortezomib; first compound 0.8 µM) | relative viability (DM3189 + Bortezomib; first compound 2.53 µM) | relative viability (DM3189 + Navitoclax; first compound 0.08 µM) | relative viability (DM3189 + Navitoclax; first compound 0.253 µM) | relative viability (DM3189 + Navitoclax; first compound 0.8 µM) | relative viability (DM3189 + Navitoclax; first compound 2.53 µM) | relative viability (DM3189 + Pictilisib; first compound 0.08 µM) | relative viability (DM3189 + Pictilisib; first compound 0.253 µM) | relative viability (DM3189 + Pictilisib; first compound 0.8 µM) | relative viability (DM3189 + Pictilisib; first compound 2.53 µM) | relative viability (DM3189 + OSI-027; first compound 0.08 µM) | relative viability (DM3189 + OSI-027; first compound 0.253 µM) | relative viability (DM3189 + OSI-027; first compound 0.8 µM) | relative viability (DM3189 + OSI-027; first compound 2.53 µM) |
| --- | --- | --- | --- | --- | --- | --- | --- | --- | --- | --- | --- | --- | --- | --- | --- | --- | --- | --- | --- | --- |
| 201T | 1.06 | 1.03 | 0.998 | 1.03 | 1.15 | 1.07 | 1.05 | 1.09 | 1.17 | 1.21 | 1.18 | 1.23 | 0.766 | 0.73 | 0.515 | 0.702 | 0.88 | 0.763 | 0.512 | 0.747 |
| NCI-H322M | 0.651 | 0.633 | 0.508 | 0.603 | 1.25 | 1.38 | 1.19 | 1.23 | 1.33 | 1.25 | 1.28 | 1.52 | 0.565 | 0.526 | 0.462 | 0.447 | 0.622 | 0.596 | 0.541 | 0.506 |
| A549 | 0.916 | 1.01 | 1.01 | 1 | – | – | – | – | 1.23 | 1.27 | 1.28 | 1.3 | 0.495 | 0.481 | 0.48 | 0.357 | – | – | – | – |
| NCI-H838 | 1.1 | 0.867 | 0.65 | 0.897 | 1 | 0.64 | 0.633 | 0.92 | 1.15 | 1.09 | 0.904 | 1.23 | 0.521 | 0.35 | 0.317 | 0.397 | 0.427 | 0.376 | 0.312 | 0.357 |
| NCI-H460 | 1.45 | 1.03 | 0.825 | 0.235 | 1.19 | 1.07 | 1.06 | 0.255 | 1.2 | 1.18 | 0.996 | 0.904 | 0.387 | 0.464 | 0.223 | 0.43 | 1.12 | 0.72 | 0.598 | 0.549 |
| HOP-62 | 1.23 | 0.968 | 1.01 | 0.977 | 1.18 | 0.927 | 0.393 | 0.58 | 1.09 | 0.994 | 0.989 | 1.17 | 0.86 | 0.562 | 0.572 | 0.836 | 1.02 | 0.852 | 0.817 | 0.871 |
| SK-LU-1 | 0.864 | 0.718 | 0.583 | 0.459 | 1.24 | 0.882 | 0.738 | 0.7 | 0.686 | 0.595 | 0.564 | 0.397 | 0.531 | 0.4 | 0.393 | 0.393 | 0.373 | 0.283 | 0.299 | 0.284 |
| HCC-44 | 1.13 | 0.743 | 0.792 | 1.02 | 0.975 | 0.905 | 0.781 | 0.995 | 1.12 | 1.11 | 0.813 | 1.44 | 0.815 | 0.615 | 0.472 | 0.752 | 0.631 | 0.482 | 0.373 | 0.596 |
